“Also recorded” adds a separate entry of the source.
Assays:
MAO-B [1] = target: T1, MAO-B (Homo sapiens, UniProt P27338); experiment: MAO-B inhibition, recombinant enzyme, benzylamine substrate; type: biochemical; conditions: for SI (MAO-B compared with MAO-A): IC50 (MAO-A)/IC50 (MAO-B); for IC50: IC50 MAO-B; for remaining activity at 1 µM: read-out: residual activity (%) MAO-B
T1 sequence (P27338 1-520): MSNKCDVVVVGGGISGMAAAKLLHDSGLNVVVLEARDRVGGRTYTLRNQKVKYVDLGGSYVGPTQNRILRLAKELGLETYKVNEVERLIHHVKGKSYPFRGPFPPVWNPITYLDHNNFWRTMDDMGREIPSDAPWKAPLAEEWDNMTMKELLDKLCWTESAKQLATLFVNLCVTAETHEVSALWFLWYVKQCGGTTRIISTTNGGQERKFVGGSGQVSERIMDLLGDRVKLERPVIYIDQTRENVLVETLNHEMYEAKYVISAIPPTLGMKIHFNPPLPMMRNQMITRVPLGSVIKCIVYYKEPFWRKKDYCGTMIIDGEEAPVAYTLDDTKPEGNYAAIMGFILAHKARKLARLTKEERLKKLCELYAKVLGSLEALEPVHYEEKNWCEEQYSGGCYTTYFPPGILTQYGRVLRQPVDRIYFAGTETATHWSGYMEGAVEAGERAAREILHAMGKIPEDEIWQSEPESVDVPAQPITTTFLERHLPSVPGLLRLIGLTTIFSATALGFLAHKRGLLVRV

BChE = BChE (Equus caballus, UniProt P81908); conditions: 10 μM
Sequence of BChE (P81908 whole entry): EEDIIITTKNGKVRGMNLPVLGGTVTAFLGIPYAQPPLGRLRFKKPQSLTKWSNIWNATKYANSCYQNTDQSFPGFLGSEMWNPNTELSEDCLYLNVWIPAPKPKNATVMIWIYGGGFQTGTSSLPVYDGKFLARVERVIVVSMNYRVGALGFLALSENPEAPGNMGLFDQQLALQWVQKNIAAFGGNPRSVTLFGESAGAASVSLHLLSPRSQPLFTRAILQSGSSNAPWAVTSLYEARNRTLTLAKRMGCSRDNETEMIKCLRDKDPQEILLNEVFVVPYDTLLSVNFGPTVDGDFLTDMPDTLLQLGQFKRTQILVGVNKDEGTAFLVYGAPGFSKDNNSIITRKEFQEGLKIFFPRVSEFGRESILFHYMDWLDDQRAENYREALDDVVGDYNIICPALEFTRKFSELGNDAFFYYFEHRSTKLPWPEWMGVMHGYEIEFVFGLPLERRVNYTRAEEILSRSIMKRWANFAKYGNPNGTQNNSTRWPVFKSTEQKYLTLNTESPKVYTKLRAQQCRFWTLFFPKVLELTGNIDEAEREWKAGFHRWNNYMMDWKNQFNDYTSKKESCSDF

MAO-A = target: T2, MAO-A (Homo sapiens, UniProt P21397); experiment: biochemical; conditions: for remaining activity at 10 µM: read-out: residual activity (%) MAO-A
T2 sequence (P21397 1-527): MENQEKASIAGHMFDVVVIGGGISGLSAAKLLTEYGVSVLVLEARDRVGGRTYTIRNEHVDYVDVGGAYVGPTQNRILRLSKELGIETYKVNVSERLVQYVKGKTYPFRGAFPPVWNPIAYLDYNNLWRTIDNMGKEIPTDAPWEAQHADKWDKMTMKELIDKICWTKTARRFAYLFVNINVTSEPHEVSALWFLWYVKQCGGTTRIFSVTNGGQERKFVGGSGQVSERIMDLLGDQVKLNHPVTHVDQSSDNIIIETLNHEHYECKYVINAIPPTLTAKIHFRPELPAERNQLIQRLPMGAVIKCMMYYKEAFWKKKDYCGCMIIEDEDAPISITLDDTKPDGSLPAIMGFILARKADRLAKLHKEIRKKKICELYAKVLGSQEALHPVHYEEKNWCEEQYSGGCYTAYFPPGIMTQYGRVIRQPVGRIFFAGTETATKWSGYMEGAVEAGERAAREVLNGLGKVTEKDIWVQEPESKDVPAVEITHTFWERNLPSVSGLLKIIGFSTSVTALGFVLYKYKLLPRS

BACE1 = BACE1 (Homo sapiens, UniProt P56817); experiment: biochemical; conditions: read-out: residual activity (%) BACE1
Sequence of BACE1 (P56817 46-501): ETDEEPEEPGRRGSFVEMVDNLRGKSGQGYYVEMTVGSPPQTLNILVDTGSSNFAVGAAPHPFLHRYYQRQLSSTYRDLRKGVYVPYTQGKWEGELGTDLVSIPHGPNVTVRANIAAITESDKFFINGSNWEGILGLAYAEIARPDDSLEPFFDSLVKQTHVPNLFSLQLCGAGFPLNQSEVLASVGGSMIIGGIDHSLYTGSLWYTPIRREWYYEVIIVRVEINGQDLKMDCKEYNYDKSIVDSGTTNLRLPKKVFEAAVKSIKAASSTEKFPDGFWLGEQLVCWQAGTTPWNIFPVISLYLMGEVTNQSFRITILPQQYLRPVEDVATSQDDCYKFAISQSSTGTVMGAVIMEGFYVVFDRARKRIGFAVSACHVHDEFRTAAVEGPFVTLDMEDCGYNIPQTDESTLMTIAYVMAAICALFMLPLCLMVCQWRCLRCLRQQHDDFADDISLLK

AChE = AChE (Electrophorus electricus, UniProt O42275); experiment: AChE inhibition; conditions: 10 μM
Sequence of AChE (O42275 24-633): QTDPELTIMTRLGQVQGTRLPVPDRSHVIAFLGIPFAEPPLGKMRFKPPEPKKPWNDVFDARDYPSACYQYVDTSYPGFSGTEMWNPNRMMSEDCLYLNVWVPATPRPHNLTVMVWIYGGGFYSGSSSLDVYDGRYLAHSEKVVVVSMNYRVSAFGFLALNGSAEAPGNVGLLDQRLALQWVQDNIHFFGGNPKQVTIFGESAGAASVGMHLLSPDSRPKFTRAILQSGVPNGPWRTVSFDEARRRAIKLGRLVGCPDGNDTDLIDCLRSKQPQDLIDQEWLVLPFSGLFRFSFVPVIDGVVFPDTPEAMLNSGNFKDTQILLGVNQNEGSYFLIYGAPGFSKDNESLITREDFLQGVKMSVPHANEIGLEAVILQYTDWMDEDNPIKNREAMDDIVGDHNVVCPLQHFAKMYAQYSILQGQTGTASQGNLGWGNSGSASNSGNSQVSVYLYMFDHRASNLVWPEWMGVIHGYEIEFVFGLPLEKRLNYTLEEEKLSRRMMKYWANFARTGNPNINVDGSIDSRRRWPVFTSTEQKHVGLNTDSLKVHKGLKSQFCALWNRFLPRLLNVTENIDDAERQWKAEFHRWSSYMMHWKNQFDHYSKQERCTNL

Vero cells [2] = experiment: Cytotoxicity on Vero cells, MTT method; type: cell-based, African green monkey; conditions: 100 μg/mL, 24 h
Vero cells [3] = experiment: Intracellular ROS assay in H2O2-treated Vero cells; type: cell-based, African green monkey; conditions: 24 h drug treatment, vs H2O2-treated control
MAO-B [4] = target: T1, MAO-B; experiment: Reversibility of MAO-B inhibition by dialysis; type: biochemical
[5] = Cytotoxicity on Vero cells, MTT method; type: cell-based, African green monkey; conditions: African green monkey, Vero cells (normal kidney epithelial cell line)
MAO-B [6] = conditions: cited from earlier work

Row | Compound | SI (MAO-B compared with MAO-A) (MAO-B [1]) | IC50 (MAO-B [1]) [nM] | remaining activity at 1 µM (MAO-B [1]) [%] | residual activity (%) BChE (BChE) [%] | IC50 (MAO-A) [nM] | remaining activity at 10 µM (MAO-A) [%] | remaining activity at 10 µM (BACE1) [%] | residual activity (%) AChE (AChE) [%] | toxicity by cellular morphology, phase-contrast microscopy (Vero cells [2]) | intracellular ROS scavenging (Vero cells [3]) | relative MAO-B activity, dialyzed (AD) (MAO-B [4]; MK6/MK12 6.0 nM, lazabemide 0.22 μM, pargyline 0.28 μM, after dialysis) [%] | relative MAO-B activity, undialyzed (AU) (MAO-B [4]; MK6/MK12 6.0 nM, lazabemide 0.22 μM, pargyline 0.28 μM, preincubation 30 min) [%] | reversibility of MAO-B inhibition (MAO-B [4]; dialysis) | viability at 24 h, 80 μg/mL [5] [%] | viability at 24 h, 60 μg/mL [5] [%] | SI value (MAO-B [6]) | IC50 (MAO-B [6]; read-out: IC50 MAO-B) [nM] | Ki (MAO-B [6]; read-out: Ki MAO-B) [nM]
1 | O=C(/C=C/C=C/c1ccccc1)c1ccc(Cl)cc1 [MK1, (2E,4E)-1-(4-Chlorophenyl)-5-phenylpenta-2,4-dien-1-one] | 1498.2 | 11.2 ± 1.65 | 2.17 ± 1.49 | 94.1 ± 4.72 | 16700 ± 400 | 83 ± 2.71 | 77.1 ± 0.0087 | 84.0 ± 0.23 |  |  |  |  |  |  |  |  |  | 
2 | O=C(/C=C/C=C/c1ccc(Br)cc1)c1ccc(Cl)cc1 [MK2, (2E,4E)-5-(4-Bromophenyl)-1-(4-chlorophenyl)penta-2,4-dien-1-one] | 232.4 | 101 ± 1.63 | 14.3 ± 0.43 | 95.4 ± 2.86 | 23500 ± 860 | 97.8 ± 0.16 | 81.4 ± 0.97 | 82.4 ± 0.98 |  |  |  |  |  |  |  |  |  | 
3 | COc1ccc(/C=C/C=C/C(=O)c2ccc(Cl)cc2)cc1 [MK3, (2E,4E)-1-(4-Chlorophenyl)-5-(4-methoxyphenyl)penta-2,4-dien-1-one] | 1290.2 | 13.1 ± 0.81 | 5.81 ± 0.27 | 83.2 ± 0.46 | 16900 ± 500 | 73.6 ± 2.83 | 84.8 ± 0.53 | 81.4 ± 1.06 |  |  |  |  |  |  |  |  |  | 
4 | O=C(/C=C/C=C/c1ccc(F)cc1)c1ccc(Cl)cc1 [MK4, (2E,4E)-1-(4-Chlorophenyl)-5-(4-fluorophenyl)penta-2,4-dien-1-one] | 1609.8 | 9.67 ± 0.47 | 1.61 ± 2.28 | 94.9 ± 7.16 | 15600 ± 630 | 77 ± 6.2 | 72.5 ± 0.9 | 90.7 ± 0.57 |  |  |  |  |  |  |  |  |  | 
5 | O=C(/C=C/C=C/c1ccc([N+](=O)[O-])cc1)c1ccc(Cl)cc1 [MK5, (2E,4E)-1-(4-Chlorophenyl)-5-(4-nitrophenyl)penta-2,4-dien-1-one] | 4783.0 | 4.02 ± 0.13 | 5.81 ± 0.27 | 71.6 ± 1.05 | 19200 ± 940 | 72.9 ± 0.44 | 73.3 ± 2.51 | 74.1 ± 1.42 | no signs of toxicity | significant scavenging effect of reactive oxygen species; also recorded: significant ROS scavenging effect |  |  |  |  |  |  |  | 
6 | O=C(/C=C/C=C/c1ccccc1)c1ccc(Br)cc1 [MK6, (2E,4E)-1-(4-Bromophenyl)-5-phenylpenta-2,4-dien-1-one] |  |  |  | 97.5 ± 3.58 | 20600 ± 1020 | 84 ± 1.22 | 74.1 ± 1.48 | 74.7 ± 0.66 | no signs of toxicity | significant scavenging effect of reactive oxygen species; also recorded: significant ROS scavenging effect | 79.2 | 34.9 | reversible inhibitors | > 70 |  |  |  | 
7 | O=C(/C=C/C=C/c1ccc(Br)cc1)c1ccc(Br)cc1 [MK7, (2E,4E)-1,5-Bis(4-bromophenyl)penta-2,4-dien-1-one] | 1400.0 | 15.5 ± 0.06 | 8.9 ± 0.15 | 99.2 ± 1.09 | 21700 ± 2010 | 85.4 ± 1.99 | 84.5 ± 0.91 | 75.8 ± 0.73 |  |  |  |  |  |  |  |  |  | 
8 | COc1ccc(/C=C/C=C/C(=O)c2ccc(Br)cc2)cc1 [MK8, (2E,4E)-1-(4-Bromophenyl)-5-(4-methoxyphenyl)penta-2,4-dien-1-one] | 1443.8 | 16.7 ± 0.62 | 7.85 ± 0.22 | 80.7 ± 7.70 | 24100 ± 38 | 69.6 ± 2.03 | 80.9 ± 1.67 | 86.1 ± 5.10 |  |  |  |  |  |  |  |  |  | 
9 | O=C(/C=C/C=C/c1ccc(F)cc1)c1ccc(Br)cc1 [MK9, (2E,4E)-1-(4-Bromophenyl)-5-(4-fluorophenyl)penta-2,4-dien-1-one] | 1671.7 | 13.5 ± 1.06 | 2.6 ± 0.57 | 87.4 ± 6.95 | 22500 ± 47 | 74.9 ± 1.29 | 65 ± 1.61 | 57.7 ± 0.00 |  |  |  |  |  |  |  |  |  | 
10 | O=C(/C=C/C=C/c1ccc([N+](=O)[O-])cc1)c1ccc(Br)cc1 [MK10, (2E,4E)-1-(4-Bromophenyl)-5-(4-nitrophenyl)penta-2,4-dien-1-one] | 481.0 | 40.6 ± 0.87 | 3.4 ± 0.14 | 87.9 ± 1.86 | 19500 ± 590 | 69.1 ± 1.32 | 69.4 ± 1.03 | 84.0 ± 0.73 |  |  |  |  |  |  |  |  |  | 
11 | O=C(/C=C/C=C/c1ccc(Br)cc1)c1ccc(F)cc1 [MK11, (2E,4E)-5-(4-Bromophenyl)-1-(4-fluorophenyl)penta-2,4-dien-1-one] | 1394.7 | 19.8 ± 0.53 | 3.45 ± 0.21 | 89.2 ± 6.58 | 27500 ± 820 | 76.9 ± 3.02 | 71.4 ± 1.03 | 77.8 ± 2.19 |  |  |  |  |  |  |  |  |  | 
12 | O=C(/C=C/C=C/c1ccc([N+](=O)[O-])cc1)c1ccc(F)cc1 [MK13, (2E,4E)-1-(4-Fluorophenyl)-5-(4-nitrophenyl)penta-2,4-dien-1-one] | 5635.2 | 4.24 ± 0.13 | 1.95 ± 0.067 | 97.8 ± 1.55 | 23700 ± 170 | 71.5 ± 8.06 | 76.7 ± 0.64 | 91.5 ± 0.80 |  |  |  |  |  |  |  |  |  | 
13 | COc1ccc(/C=C/C=C/C(=O)c2ccccc2)cc1 [MK14, (2E,4E)-5-(4-Methoxyphenyl)-1-phenylpenta-2,4-dien-1-one] | 3871.5 | 4.89 ± 0.17 | -0.95 | 89.0 ± 1.55 | 18900 ± 1020 | 61.4 ± 6.27 | 77.3 ± 1.23 | 84.7 ± 5.62 | no signs of toxicity | significant scavenging effect of reactive oxygen species; also recorded: significant ROS scavenging effect |  |  |  |  | > 80 |  |  | 
14 | O=C(/C=C/C=C/c1ccc([N+](=O)[O-])cc1)c1ccccc1 [MK15, (2E,4E)-5-(4-Nitrophenyl)-1-phenylpenta-2,4-dien-1-one] | 1025.8 | 12.4 ± 7.92 | -3.52 | 80.2 ± 1.55 | 12700 ± 570 | 54.4 ± 5.37 | 89.5 ± 0.92 | 68.8 ± 0.80 |  |  |  |  |  |  |  |  |  | 
15 | O=C(C=CC=Cc1ccccc1)c1ccc(N2CCOCC2)cc1 [MO10, 1-[4-(morpholin-4-yl)phenyl]-5-phenylpenta-2,4-dien-1-one] |  |  |  |  |  |  |  |  |  |  |  |  |  |  |  | 366.13 | 44 | 8 ± 3

Reference: article PMC8908507 (ACS Omega, 2022)
